Common to all, as to assay type: biochemical
Assay [1] concerns the target PDE1A (Homo sapiens, UniProt P54750). As to the kind of experiment: PDE1 inhibition assay (PDE1A), SPA with tritium labelled cAMP. The conditions noted are these: 15 nM tritium labelled cAMP, 1 hr at room temperature, SPA beads. The protocol: (§1) PDE1A, PDE1B and PDE1C assays were performed as follows: the assays were performed in 60 μL samples containing a fixed amount of the PDE1 enzyme (sufficient to convert 20-25% of the cyclic nucleotide substrate), a buffer (50 mM HEPES (4-(2-hydroxyethyl)-1-piperazineethanesulfonic acid) pH 7.6; 10 mM MgCl2; 0.02% Tween20), 0.1 mg/ml BSA (bovine serum albumin), 15 nM tritium labelled cAMP and varying amounts of inhibitors. Reactions were initiated by addition of the cyclic nucleotide substrate, and reactions were allowed to proceed for 1 hr at room temperature before being terminated through mixing with 20 μL (0.2 mg) yttrium silicate SPA beads (PerkinElmer). The beads were allowed to settle for 1 hr in the dark before the plates were counted in a Wallac 1450 Microbeta counter. The measured signals were converted to activity relative to an uninhibited control (100%) and IC50 values were calculated using XIFit (model 205, IDBS).

Assay [2] deals with PDE1C (Homo sapiens, UniProt Q14123). As to the kind of experiment: PDE1 inhibition assay (PDE1C), SPA with tritium labelled cAMP. Particulars: 15 nM tritium labelled cAMP, 1 hr at room temperature, SPA beads. The protocol: as §1
Assay [3] deals with PDE1B (Homo sapiens, UniProt Q01064). As to the kind of experiment: PDE1 inhibition assay (PDE1B), SPA with tritium labelled cAMP. The conditions noted are these: 15 nM tritium labelled cAMP, 1 hr at room temperature, SPA beads; read-out: PDE1B, IC50. The protocol: Reactions were initiated by addition of the cyclic nucleotide substrate, and reactions were allowed to proceed for 1 hr at room temperature before being terminated through mixing with 20 μL (0.2 mg) yttrium silicate SPA beads (PerkinElmer).

Molecules are shown by their SMILES.

Sequence of PDE1B (Q01064 whole entry): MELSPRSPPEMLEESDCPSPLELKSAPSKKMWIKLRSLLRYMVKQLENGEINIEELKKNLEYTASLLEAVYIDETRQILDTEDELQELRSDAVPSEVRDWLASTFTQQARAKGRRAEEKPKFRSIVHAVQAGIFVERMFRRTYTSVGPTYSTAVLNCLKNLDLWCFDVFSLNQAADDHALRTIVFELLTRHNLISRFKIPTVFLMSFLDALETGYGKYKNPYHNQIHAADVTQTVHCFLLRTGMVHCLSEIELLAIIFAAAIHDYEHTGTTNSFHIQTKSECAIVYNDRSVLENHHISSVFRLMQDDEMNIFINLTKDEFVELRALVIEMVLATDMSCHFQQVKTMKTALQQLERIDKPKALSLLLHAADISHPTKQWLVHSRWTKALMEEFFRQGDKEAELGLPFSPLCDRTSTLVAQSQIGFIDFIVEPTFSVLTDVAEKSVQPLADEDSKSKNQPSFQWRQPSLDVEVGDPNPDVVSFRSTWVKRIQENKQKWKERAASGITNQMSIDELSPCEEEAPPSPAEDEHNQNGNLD
Sequence of PDE1A (P54750 whole entry): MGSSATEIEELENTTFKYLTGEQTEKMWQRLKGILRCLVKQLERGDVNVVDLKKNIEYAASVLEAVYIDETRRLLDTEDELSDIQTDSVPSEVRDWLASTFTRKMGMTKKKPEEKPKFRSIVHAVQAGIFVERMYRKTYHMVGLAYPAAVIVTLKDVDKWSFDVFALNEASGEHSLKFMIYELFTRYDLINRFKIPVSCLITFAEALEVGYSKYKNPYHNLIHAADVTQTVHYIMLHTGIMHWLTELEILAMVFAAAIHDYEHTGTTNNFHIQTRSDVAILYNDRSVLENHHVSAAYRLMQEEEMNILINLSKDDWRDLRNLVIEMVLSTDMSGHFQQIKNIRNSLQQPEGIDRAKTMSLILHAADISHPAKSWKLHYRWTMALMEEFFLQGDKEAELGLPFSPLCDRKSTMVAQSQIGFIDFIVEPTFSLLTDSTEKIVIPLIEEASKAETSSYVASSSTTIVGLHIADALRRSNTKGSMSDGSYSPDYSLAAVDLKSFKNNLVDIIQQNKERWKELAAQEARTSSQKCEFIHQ
Sequence of PDE1C (Q14123 whole entry): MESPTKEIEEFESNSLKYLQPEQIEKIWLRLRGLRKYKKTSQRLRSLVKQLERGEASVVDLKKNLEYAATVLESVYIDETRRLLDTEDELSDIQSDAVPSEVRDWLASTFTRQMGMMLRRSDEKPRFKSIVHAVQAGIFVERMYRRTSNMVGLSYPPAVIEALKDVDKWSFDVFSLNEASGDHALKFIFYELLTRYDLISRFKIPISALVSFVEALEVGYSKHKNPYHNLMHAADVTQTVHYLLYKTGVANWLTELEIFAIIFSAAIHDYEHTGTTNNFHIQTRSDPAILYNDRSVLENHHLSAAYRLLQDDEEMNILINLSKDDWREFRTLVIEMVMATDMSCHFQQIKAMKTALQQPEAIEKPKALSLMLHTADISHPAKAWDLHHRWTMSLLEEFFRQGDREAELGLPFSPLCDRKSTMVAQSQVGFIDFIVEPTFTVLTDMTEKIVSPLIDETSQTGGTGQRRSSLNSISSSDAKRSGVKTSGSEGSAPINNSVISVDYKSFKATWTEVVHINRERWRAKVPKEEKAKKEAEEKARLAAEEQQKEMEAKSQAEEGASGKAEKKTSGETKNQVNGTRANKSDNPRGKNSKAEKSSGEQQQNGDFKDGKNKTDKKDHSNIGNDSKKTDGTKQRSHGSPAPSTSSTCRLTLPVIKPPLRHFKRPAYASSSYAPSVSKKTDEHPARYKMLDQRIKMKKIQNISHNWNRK

As for `CCOc1ncccc1-c1cc(NCc2cc(OC)ccn2)c2c(C(C)C)nn(C)c2n1` [Example 39, 6-(2-ethoxy-3-pyridyl)-3-isopropyl-N-[(4-methoxy-2-pyridyl)methyl]-1-methyl-pyrazolo[3,4-b]pyridin-4-amine], the figures for the concentration for half-maximal inhibition (IC50) in assay [1], in assay [2] and in assay [3] were 27 nM, 25 nM and 3.4 nM, respectively.

In the case of `CCOc1ncccc1-c1cc(NCc2cc[nH]n2)c2c(C(C)C)nn(C)c2n1` [Example 3, 6-(2-ethoxy-3-pyridyl)-3-isopropyl-1-methyl-N-(1H-pyrazol-3-ylmethyl)pyrazolo[3,4-b]pyridin-4-amine], the half-maximal inhibitory concentration (IC50) turned out to be 56 nM in assay [1], 58 nM in assay [2] and 4.3 nM in assay [3].

Regarding `CCOc1ncccc1-c1cc(NCc2coc(C)n2)c2c(C(C)C)nn(C)c2n1` [Example 2, 6-(2-ethoxy-3-pyridyl)-3-isopropyl-1-methyl-N-[(2-methyloxazol-4-yl)methyl]pyrazolo[3,4-b]pyridin-4-amine], the 50% inhibitory concentration (IC50) in assay [1] came out at 81 nM; in assay [2], 99 nM; in assay [3] it was 15 nM.

With `CCOc1ncccc1-c1cc(NCc2cncc(OC)c2)c2c(C(C)C)nn(C)c2n1` [Example 25, 6-(2-ethoxy-3-pyridyl)-3-isopropyl-N-[(5-methoxy-3-pyridyl)methyl]-1-methyl-pyrazolo[3,4-b]pyridin-4-amine], the IC50 in assay [1] came out at 16 nM; in assay [2] it was 18 nM; in assay [3] it was 6.3 nM.

Consider `CCOc1ncccc1-c1cc(NCc2cccnc2F)c2c(C(C)C)nc(C)n2n1` [Example 73, 2-(2-ethoxy-3-pyridyl)-N-[(2-fluoro-3-pyridyl)methyl]-5-isopropyl-7-methyl-imidazo[1,5-b]pyridazin-4-amine], for which the IC50 in assay [1] stood at 33 nM; in assay [2], 29 nM; in assay [3], 3.6 nM.

For the compound `CCOc1ncccc1-c1cc(NCc2cn[nH]c2)c2c(C(C)C)nn(C)c2n1` [Example 30, 6-(2-ethoxy-3-pyridyl)-3-isopropyl-1-methyl-N-(1H-pyrazol-4-ylmethyl)pyrazolo[3,4-b]pyridin-4-amine], the figures for the half-inhibitory concentration (IC50) in assay [1], in assay [2] and in assay [3] were 85 nM, 76 nM and 16 nM, respectively.

Regarding `CCOc1ncccc1-c1cc(NCc2ncn(C)n2)c2c(C(C)C)nn(C)c2n1` [Example 4, 6-(2-ethoxy-3-pyridyl)-3-isopropyl-1-methyl-N-[(1-methyl-1,2,4-triazol-3-yl)methyl]pyrazolo[3,4-b]pyridin-4-amine], the values for the IC50 in assay [1], in assay [2] and in assay [3] were 11 nM, 13 nM and 0.34 nM, respectively.

For the compound `CCOc1ncccc1-c1cc(NCc2cn(C)nn2)c2c(C(C)C)nn(C)c2n1` [Example 29, 6-(2-ethoxy-3-pyridyl)-3-isopropyl-1-methyl-N-[(1-methyltriazol-4-yl)methyl]pyrazolo[3,4-b]pyridin-4-amine], the half-maximal inhibitory concentration (IC50) in assay [1] was determined as 18 nM; in assay [2], 33 nM; in assay [3] it was 1.6 nM.

In the case of `CCOc1ncccc1-c1cc(NCc2ncn(C)n2)c2c(C(C)C)nc(C)n2n1` [Example 11, 2-(2-ethoxy-3-pyridyl)-5-isopropyl-7-methyl-N-[(1-methyl-1,2,4-triazol-3-yl)methyl]imidazo[1,5-b]pyridazin-4-amine], the IC50 came out at 2 nM in assay [1], 2.6 nM in assay [2] and 0.28 nM in assay [3].

For `CCOc1ncccc1-c1cc(NCc2cccc3nccn23)c2c(C(C)C)nc(C)n2n1` [Example 79, 2-(2-ethoxy-3-pyridyl)-N-(imidazo[1,2-a]pyridin-5-ylmethyl)-5-isopropyl-7-methyl-imidazo[1,5-b]pyridazin-4-amine], the IC50 in assay [1] was 35 nM; in assay [2], 19 nM; in assay [3] it was 28 nM.

For the compound `CCOc1ncccc1-c1cc(NCc2cncc(OC)c2)c2c(C(C)C)nc(C)n2n1` [Example 14, 2-(2-ethoxy-3-pyridyl)-5-isopropyl-N-[(5-methoxy-3-pyridyl)methyl]-7-methyl-imidazo[1,5-b]pyridazin-4-amine], the half-maximal inhibitory concentration (IC50) was 6.2 nM in assay [1], 5.1 nM in assay [2] and 1.5 nM in assay [3].

On to `CCOc1ncccc1-c1cc(NCc2nnc(C)o2)c2c(C(C)C)nn(C)c2n1` [Example 31, 6-(2-ethoxy-3-pyridyl)-3-isopropyl-1-methyl-N-[(5-methyl-1,3,4-oxadiazol-2-yl)methyl]pyrazolo[3,4-b]pyridin-4-amine], for which the figures for the concentration for half-maximal inhibition (IC50) in assay [1], in assay [2] and in assay [3] were 110 nM, 110 nM and 16 nM, respectively.

Turning to `CCOc1cnccc1-c1cc(NCc2cnn(C)c2)c2c(C(C)C)nc(C)n2n1` [Example 70, 2-(3-ethoxy-4-pyridyl)-5-isopropyl-7-methyl-N-[(1-methylpyrazol-4-yl)methyl]imidazo[1,5-b]pyridazin-4-amine], the IC50 in assay [1] was 21 nM; in assay [2], 28 nM; in assay [3] it was 6.3 nM.

With `CCOc1ncccc1-c1cc(NCc2nnn(C)n2)c2c(C(C)C)nn(C)c2n1` [Example 20, 6-(2-ethoxy-3-pyridyl)-3-isopropyl-1-methyl-N-[(2-methyltetrazol-5-yl)methyl]pyrazolo[3,4-b]pyridin-4-amine], the results for the IC50 in assay [1], in assay [2] and in assay [3] were 16 nM, 30 nM and 2.8 nM, respectively.

Turning to `CCOc1ncccc1-c1cc(NCc2cnc(C)o2)c2c(C(C)C)nn(C)c2n1` [Example 27, 6-(2-ethoxy-3-pyridyl)-3-isopropyl-1-methyl-N-[(2-methyloxazol-5-yl)methyl]pyrazolo[3,4-b]pyridin-4-amine], the concentration for half-maximal inhibition (IC50) worked out at 53 nM in assay [1], 60 nM in assay [2] and 10 nM in assay [3].

Consider `CCOc1ncccc1-c1cc(NCc2cccc3cncn23)c2c(C(C)C)nc(C)n2n1` [Example 78, 2-(2-ethoxy-3-pyridyl)-N-(imidazo[1,5-a]pyridin-5-ylmethyl)-5-isopropyl-7-methyl-imidazo[1,5-b]pyridazin-4-amine], for which the concentration for half-maximal inhibition (IC50) was determined as 61 nM in assay [1], 39 nM in assay [2] and 5.5 nM in assay [3].

As for `Cc1csc(-c2cc(NCc3ncn(C)n3)c3c(C(C)C)nn(C)c3n2)n1` [Example 60, 3-isopropyl-1-methyl-6-(4-methylthiazol-2-yl)-N-[(1-methyl-1,2,4-triazol-3-yl)methyl]pyrazolo[3,4-b]pyridin-4-amine], the 50% inhibitory concentration (IC50) worked out at 48 nM in assay [1], 74 nM in assay [2] and 8.8 nM in assay [3].

Consider `CCOc1ncccc1-c1cc(NCc2cc(C)[nH]n2)c2c(C(C)C)nc(C)n2n1` [Example 13, 2-(2-ethoxy-3-pyridyl)-5-isopropyl-7-methyl-N-[(5-methyl-1H-pyrazol-3-yl)methyl]imidazo[1,5-b]pyridazin-4-amine], for which the IC50 amounted to 4.1 nM in assay [1], 2.7 nM in assay [2] and 0.31 nM in assay [3].

For the compound `COc1nccnc1-c1cc(NCc2ncn(C)n2)c2c(C(C)C)nn(C)c2n1` [Example 57, 3-isopropyl-6-(3-methoxypyrazin-2-yl)-1-methyl-N-((1-methyl-1H-1,2,4-triazol-3-yl)methyl)-1H-pyrazolo[3,4-b]pyridin-4-amine], the results for the 50% inhibitory concentration (IC50) in assay [1], in assay [2] and in assay [3] were 91 nM, 6.5 nM and 22 nM, respectively.

For the compound `CCOc1ncccc1-c1cc(NCc2cnn(C)c2)c2c(C(C)C)nc(C)n2n1` [Example 22, 2-(2-ethoxy-3-pyridyl)-5-isopropyl-7-methyl-N-[(1-methylpyrazol-4-yl)methyl]imidazo[1,5-b]pyridazin-4-amine], the IC50 in assay [1] turned out to be 17 nM; in assay [2] it was 16 nM; in assay [3], 1.8 nM.

Take `CCOc1ncccc1-c1cc(NCc2ccnc(OC)c2)c2c(C(C)CC)nc(C)n2n1` (single isomer, unassigned; (+)) [Example 53, (+)-2-(2-ethoxy-3-pyridyl)-N-[(2-methoxy-4-pyridyl)methyl]-7-methyl-5-[1-methylpropyl]imidazo[1,5-b]pyridazin-4-amine]: the IC50 in assay [1] was found to be 62 nM; in assay [2] it was 11 nM; in assay [3], 12 nM.

As to `CCOc1ncccc1-c1cc(NCc2cc(C)[nH]n2)c2c(C(C)C)nn(C)c2n1` [Example 6, 6-(2-ethoxy-3-pyridyl)-3-isopropyl-1-methyl-N-[(5-methyl-1H-pyrazol-3-yl)methyl]pyrazolo[3,4-b]pyridin-4-amine], the IC50 in assay [1] turned out to be 14 nM; in assay [2], 20 nM; in assay [3], 1.2 nM.

With `Cc1cnc(-c2cc(NCc3ncn(C)n3)c3c(C(C)C)nn(C)c3n2)s1` [Example 62, 3-isopropyl-1-methyl-6-(5-methylthiazol-2-yl)-N-[(1-methyl-1,2,4-triazol-3-yl)methyl]pyrazolo[3,4-b]pyridin-4-amine], the concentration for half-maximal inhibition (IC50) in assay [1] came out at 280 nM; in assay [2] it was 150 nM; in assay [3] it was 170 nM.

On to `CCOc1ncccc1-c1cc(NCc2ccccn2)c2c(C(C)C)nc(C)n2n1` [Example 74, 2-(2-ethoxy-3-pyridyl)-5-isopropyl-7-methyl-N-(2-pyridylmethyl)imidazo[1,5-b]pyridazin-4-amine], for which the results for the IC50 in assay [1], in assay [2] and in assay [3] were 180 nM, 190 nM and 27 nM, respectively.

What is called IC50 is the concentration that gives 50% inhibition.

(Values after patent US10351561B2, “Pyrazolo[3,4-b]pyridines and imidazo[1,5-b]pyridazines as PDE1 inhibitors” (H. Lundbeck A/S, priority 2016, dated 2019).)
